Experimental data taken from US20090036420A1, “BENZAMIDE DERIVATIVES AND THEIR USE FOR TREATING CNS DISORDERS” (priority 2007, published 2009).

These molecules were tested against T1, TAAR1 (Mus musculus, UniProt Q923Y8) (assay: Radioligand binding assay on membranes of HEK293 cells stably expressing TAAR1). Details: Ki value (μM) in mouse, radioligand [3H]-rac-2-(1,2,3,4-tetrahydro-1-naphthyl)-2-imidazoline 60 nM, 4° C., 30 min.
T1 construct: expressed in transfected cells; host or cells: HEK293 cells (ATCC #CRL-1573), stably transfected with pIRESneo2 expression plasmid; membrane preparation
Experimental: The Expand High Fidelity PCR System (Roche Diagnostics) was used with 1.5 mM Mg^2+ and purified PCR products were cloned into pCR2.1-TOPO cloning vector (Invitrogen) following the instructions of the manufacturer. PCR products were subcloned into the pIRESneo2 vector (BD Clontech, Palo Alto, Calif.), and expression vectors were sequence verified before introduction in cell lines.
For the generation of stably transfected cell lines HEK293 cells were transfected with the pIRESneo2 expression plasmids containing the TAAR coding sequences (described above) with Lipofectamine 2000 (Invitrogen) according to the instructions of the manufacturer, and 24 hrs post transfection the culture medium was supplemented with 1 mg/ml G418 (Sigma, Buchs, Switzerland). After a culture period of about 10 d clones were isolated, expanded and tested for responsiveness to trace amines (all compounds purchased from Sigma) with the cAMP Biotrak Enzyme immunoassay (EIA) System (Amersham) following the non-acetylation EIA procedure provided by the manufacturer.
Cells at confluence were rinsed with ice-cold phosphate buffered saline without Ca^2+ and Mg^2+ containing 10 mM EDTA and pelleted by centrifugation at 1000 rpm for 5 min at 4° C. The pellet was then washed twice with ice-cold phosphate buffered saline and cell pellet was frozen immediately by immersion in liquid nitrogen and stored until use at −80° C. Cell pellet was then suspended in 20 ml HEPES-NaOH (20 mM), pH 7.4 containing 10 mM EDTA, and homogenized with a Polytron (PT 3000, Kinematica) at 10,000 rpm for 10 s. The homogenate was centrifuged at 48,000×g for 30 min at 4° C. and the pellet resuspended in 20 ml HEPES-NaOH (20 mM), pH 7.4 containing 0.1 mM EDTA (buffer A), and homogenized with a Polytron at 10,000 rpm for 10 s. The homogenate was then centrifuged at 48,000×g for 30 min at 4° C. and the pellet resuspended in 20 ml buffer A, and homogenized with a Polytron at 10,000 rpm for 10 s. Protein concentration was determined by the method of Pierce (Rockford, Ill.). […] Non-specific binding was defined as the amount of [^3H]-rac-2-(1,2,3,4-tetrahydro-1-naphthyl)-2-imidazoline bound in the presence of the appropriate unlabelled ligand (10 μM). Competing ligands were tested in a wide range of concentrations (10 pM-30 μM). […] Each experiment was performed in duplicate. All incubations were terminated by rapid filtration through UniFilter-96 plates (Packard Instrument Company) and glass filter GF/C, pre-soaked for at least 2 h in polyethylenimine 0.3%, and using a Filtermate 96 Cell Harvester (Packard Instrument Company). The tubes and filters were then washed 3 times with 1 ml aliquots of cold buffer B. Filters were not dried and soaked in Ultima gold (45 μl/well, Packard Instrument Company) and bound radioactivity was counted by a TopCount Microplate Scintillation Counter (Packard Instrument Company).

T1 sequence (Q923Y8 whole entry): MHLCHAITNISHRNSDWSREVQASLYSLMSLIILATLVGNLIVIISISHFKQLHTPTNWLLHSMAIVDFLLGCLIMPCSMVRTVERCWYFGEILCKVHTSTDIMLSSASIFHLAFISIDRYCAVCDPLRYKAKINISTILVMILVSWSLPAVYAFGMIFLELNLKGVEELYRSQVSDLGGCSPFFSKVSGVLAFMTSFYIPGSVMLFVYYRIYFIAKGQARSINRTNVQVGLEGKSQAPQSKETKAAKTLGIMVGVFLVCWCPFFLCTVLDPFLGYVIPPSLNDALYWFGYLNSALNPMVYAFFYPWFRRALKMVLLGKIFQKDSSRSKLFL

Row | Compound | Ki [µM]
1 | CC1CCN(c2ncc(C(=O)Nc3cccc(Cl)c3)cc2Cl)CC1 [Example 155, 3′-Chloro-4-methyl-3,4,5,6-tetrahydro-2H-[1,2′]bipyridinyl-5′-carboxylicacid (3-chloro-phenyl)-amide] | 0.023
2 | CCCNc1ncc(C(=O)Nc2cccc(Cl)c2)cc1Cl [Example 157, 5-Chloro-N-(3-chloro-phenyl)-6-propylamino-nicotinamide] | 0.011
3 | CCCCNc1ncc(C(=O)Nc2cccc(Cl)c2)cc1Cl [Example 158, 6-Butylamino-5-chloro-N-(3-chloro-phenyl)-nicotinamide] | 0.008
4 | O=C(Nc1cccc(Cl)c1)c1cnc(N2CCC2)c(Cl)c1 [Example 162, 6-Azetidin-1-yl-5-chloro-N-(3-chloro-phenyl)-nicotinamide] | 0.042
5 | COc1cccc(NC(=O)c2cccc(S(=O)(=O)N3CCCCCC3)c2)c1 [Example 170, 3-(Azepane-1-sulfonyl)-N-(3-methoxy-phenyl)-benzamide] | 0.024
6 | CC(C)c1cccc(NC(=O)c2ccc(N3CCCC3)c(C(F)(F)F)c2)c1 [Example 182, N-(3-Isopropyl-phenyl)-4-pyrrolidin-1-yl-3-trifluoro-methyl-benzamide] | 0.065
7 | O=C(Nc1cccc(Cl)c1)c1ccc(N2CCCC2)c(C(F)(F)F)c1 [Example 186, N-(3-Chloro-phenyl)-4-pyrrolidin-1-yl-3-trifluoro-methyl-benzamide] | 0.02
8 | COc1cccc(NC(=O)c2cnc(NCc3ccccc3)c(C(F)(F)F)c2)c1 [Example 199] | 0.0056
9 | COc1cccc(NC(=O)c2cnc(NC(C)C)c(C(F)(F)F)c2)c1 [Example 200] | 0.0597
10 | COc1cccc(NC(=O)c2cnc(N3CCCCC3)c(Cl)c2)c1 [Example 206] | 0.0207
11 | CCCCNc1ncc(C(=O)Nc2cccc(OC)c2)cc1Cl [Example 208] | 0.0463

Same assay, conditions: radioligand [3H]-rac-2-(1,2,3,4-tetrahydro-1-naphthyl)-2-imidazoline 60 nM, 4° C., 30 min, read-out: Ki value (μM) in mouse

Row | Ki [µM] | Compound
12 | 0.038 | O=C(Nc1cccc(Cl)c1)c1cnc(N2CCCCC2)c(Cl)c1 [Example 163, 3′-Chloro-3,4,5,6-tetrahydro-2H-[1,2′]bipyridinyl-5′-carboxylicacid (3-chloro-phenyl)-amide]
13 | 0.001 | CN1CCN(c2ncc(C(=O)Nc3cccc(Cl)c3)cc2Cl)CC1 [Example 164, 5-Chloro-N-(3-chloro-phenyl)-6-(4-methyl-piperazin-1-yl)-nicotinamide]
14 | 0.008 | COc1cccc(NC(=O)c2cnc(Cl)c(C(F)(F)F)c2)c1 [Example 178, 6-Chloro-N-(3-methoxy-phenyl)-5-trifluoromethyl-nicotinamide]
15 | 0.002 | COc1cccc(NC(=O)c2cnc(N3CCCC3)c(C(F)(F)F)c2)c1 [Example 179, N-(3-Methoxy-phenyl)-6-pyrrolidin-1-yl-5-trifluoromethyl-nicotinamide]
16 | 0.001 | CCOc1cccc(NC(=O)c2ccc(N3CCCC3)c(C(F)(F)F)c2)c1 [Example 181, N-(3-Ethoxy-phenyl)-4-pyrrolidin-1-yl-3-trifluoro-methyl-benzamide]
17 | 0.009 | O=C(Nc1cccc(F)c1)c1ccc(N2CCCC2)c(C(F)(F)F)c1 [Example 185, N-(3-Fluoro-phenyl)-4-pyrrolidin-1-yl-3-trifluoro-methyl-benzamide]
18 | 0.016 | Cc1cccc(NC(=O)c2ccc(N3CCCC3)c(C(F)(F)F)c2)c1 [Example 189, 4-Pyrrolidin-1-yl-N-m-tolyl-3-trifluoro-methyl-benzamide]
19 | 0.011 | COc1cccc(NC(=O)c2ccc(N3CCCCCC3)c(C(F)(F)F)c2)c1 [Example 195, 4-Azepan-1-yl-N-(3-methoxy-phenyl)-3-trifluoromethyl-benzamide]
20 | 0.022 | COc1cccc(NC(=O)c2ccc(N3CCC(C#N)CC3)c(C(F)(F)F)c2)c1 [Example 196, 4-(4-Cyano-piperidin-1-yl)-N-(3-methoxy-phenyl)-3-trifluoromethyl-benzamide]
21 | 0.003 | COc1cccc(NC(=O)c2ccc(N3CCC(C(F)(F)F)CC3)c(C(F)(F)F)c2)c1 [Example 197, N-(3-Methoxy-phenyl)-3-trifluoromethyl-4-(4-trifluoromethyl-piperidin-1-yl)-benzamide]
22 | 0.0017 | COc1cccc(NC(=O)c2cnc(N3CCC(C)CC3)c(C(F)(F)F)c2)c1 [Example 201]
23 | 0.0101 | COc1cccc(NC(=O)c2cnc(N3CCCC3)c(Cl)c2)c1 [Example 205]
24 | 0.0348 | O=C(Nc1cccc(Cl)c1)c1cnc(N2CCNCC2)c(Cl)c1 [Example 210, 5-Chloro-N-(3-chloro-phenyl)-6-piperazin-1-yl-nicotinamide]
25 | 0.0058 | COc1cccc(NC(=O)c2ccc(Cl)c(C(F)(F)F)c2)c1 [Example 216, 4-Chloro-N-(3-methoxy-phenyl)-3-trifluoromethyl-benzamide]
26 | 0.054 | O=C(Nc1ccccc1)c1ccc(Cl)c(Cl)c1 [Example 217, 3,4-Dichloro-N-phenyl-benzamide]
27 | 0.06 | O=C(Nc1cccc(Cl)c1)c1ccc(Cl)c(Cl)c1 [Example 218, 3,3′,4-Trichlorobenzanilide]
28 | 0.067 | O=C(Nc1ccccc1)c1ccc([N+](=O)[O-])c(C(F)(F)F)c1 [Example 219, 3-Trifluoromethyl-4-nitro-N-phenyl-benzamide]
29 | 0.068 | Cc1cccc(C(=O)Nc2ccc(Cl)c(Cl)c2)c1 [Example 220, N-(3,4-Dichloro-phenyl)-3-methyl-benzamide]
30 | 0.06 | O=C(Nc1cccc(Cl)c1)c1ccc(Cl)c(Cl)c1 [Example 283, 3,4-Dichloro-N-(3-chloro-phenyl)-benzamide]
31 | 0.0543 | O=C(Nc1ccccc1)c1ccc(Cl)c(Cl)c1 [Example 319, 3,4-Dichloro-N-phenyl-benzamide]

More lines, now with the values behind:

Row | Compound | Ki [µM]
32 | CCNc1ncc(C(=O)Nc2cccc(Cl)c2)cc1Cl [Example 156, 5-Chloro-N-(3-chloro-phenyl)-6-ethylamino-nicotinamide] | 0.039
33 | Cc1cnc(C)n1Cc1cccc(NC(=O)c2ccc(Cl)c(Cl)c2)c1 [Example 177, 3,4-Dichloro-N-[3-(2,5-dimethyl-imidazol-1-ylmethyl)-phenyl]-benzamide] | 0.049
34 | CCc1cccc(NC(=O)c2ccc(N3CCCC3)c(C(F)(F)F)c2)c1 [Example 180, N-(3-Ethyl-phenyl)-4-pyrrolidin-1-yl-3-trifluoromethyl-benzamide] | 0.021
35 | CC(C)Oc1cccc(NC(=O)c2ccc(N3CCCC3)c(C(F)(F)F)c2)c1 [Example 183, N-(3-Isopropoxy-phenyl)-4-pyrrolidin-1-yl-3-trifluoro-methyl-benzamide] | 0.007
36 | CC(=O)c1cccc(NC(=O)c2ccc(N3CCCC3)c(C(F)(F)F)c2)c1 [Example 184, N-(3-Acetyl-phenyl)-4-pyrrolidin-1-yl-3-tri-fluoromethyl-benzamide] | 0.026
37 | O=C(Nc1cccc(Br)c1)c1ccc(N2CCCC2)c(C(F)(F)F)c1 [Example 187, N-(3-Bromo-phenyl)-4-pyrrolidin-1-yl-3-trifluoro-methyl-benzamide] | 0.046
38 | O=C(Nc1cccc(OC(F)F)c1)c1ccc(N2CCCC2)c(C(F)(F)F)c1 [Example 190, N-(3-Difluoro-methoxy-phenyl)-4-pyrrolidin-1-yl-3-trifluoro-methyl-benzamide] | 0.012
39 | O=C(Nc1cccc(OC(F)(F)C(F)F)c1)c1ccc(N2CCCC2)c(C(F)(F)F)c1 [Example 192, 4-Pyrrolidin-1-yl-N-[3-(1,1,2,2-tetrafluoro-ethoxy)-phenyl]-3-trifluoro-methyl-benzamide] | 0.039
40 | COc1cccc(NC(=O)c2cnc(N3CCC(C)CC3)c(Cl)c2)c1 [Example 207] | 0.0098
41 | O=C(Nc1ccccc1)c1ccc([N+](=O)[O-])c(C(F)(F)F)c1 [Example 324, 4-Nitro-N-phenyl-3-trifluoromethyl-benzamide] | 0.0674
